Results on 1 compound are retold here after patent US6013200A, “Low toxicity corrosion inhibitor” (Baker Hughes Incorporated, priority 1997, dated 2000).

SMILES strings stand for the structures. In brackets after ≈: the same amount, converted by molar mass.

A short description of data set [1]: Biodegradability in sea water. The following applies: after 28 days.
Another data set has as its system Skeletonema costatum. Briefly: Aquatic toxicity testing. Type of data set: in vivo.

Broadly, the EC50 is the concentration that produces a half-maximal response. As for `NCCN1CCNC1=S` [1-(2-aminoethyl)-2-imidazolidinethione], the biodegradability in data set [1] was found to be 100%. Also, the 50% effective concentration (EC50) in the data set on Skeletonema costatum was determined as 236 µg/mL (≈ 1620 µM).
